Data: patent US6716865B1, “Benzoxa- and benzthiazoles” (Novartis AG, priority 1999, dated 2004)

What was measured:
[1] = target: T1, CHO cells stably transfected with human steroid sulfatase (CHO/STS) (Homo sapiens, UniProt P08842); assay: Steroid sulfatase inhibition in the CHO/STS assay; format: cell-based; conditions: assay 2, CHO/STS cells, overnight incubation, MUS substrate
T1 construct: expressed in transfected cells; host or cells: CHO cells, stably transfected
T1 sequence (P08842 22-583): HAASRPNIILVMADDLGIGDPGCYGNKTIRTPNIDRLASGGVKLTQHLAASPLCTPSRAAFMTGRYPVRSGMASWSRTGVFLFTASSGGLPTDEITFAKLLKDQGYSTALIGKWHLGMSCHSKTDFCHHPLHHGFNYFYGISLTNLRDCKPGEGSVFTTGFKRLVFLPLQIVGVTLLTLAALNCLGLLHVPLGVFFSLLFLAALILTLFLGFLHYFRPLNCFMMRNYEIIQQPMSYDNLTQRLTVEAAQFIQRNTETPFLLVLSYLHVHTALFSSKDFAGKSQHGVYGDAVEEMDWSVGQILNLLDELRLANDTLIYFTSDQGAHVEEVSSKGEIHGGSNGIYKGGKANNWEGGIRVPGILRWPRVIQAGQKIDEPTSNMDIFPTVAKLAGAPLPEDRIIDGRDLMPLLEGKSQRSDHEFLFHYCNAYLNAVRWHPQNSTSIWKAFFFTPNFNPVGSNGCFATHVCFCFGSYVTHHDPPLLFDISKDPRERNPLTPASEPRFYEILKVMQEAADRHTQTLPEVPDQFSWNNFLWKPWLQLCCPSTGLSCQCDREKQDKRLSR
Experimental: 2. Steroid sulfatase inhibition in the CHO/STS assay:
CHO cells stably transfected with human steroid sulfatase (CHO/STS) are seeded into microtiter plates. After reaching approximately 90% confluency, they are incubated overnight with graded concentrations of test substances. They are then fixed with 4% paraformaldehyde for 10 minutes at room temperature and washed 4 times with PBS before incubation with 100 μl/well 0.5 mM 4-methylumbelliferyl sulfate (MUS) dissolved in 0.1M Tris-HCl, pH 7.5. The enzyme reaction is carried out at 37° C. for one hour. Then 50 μl/well stop solution (1M Tris-HCl, pH 10.4) are added. The enzyme reaction solutions are transferred to white plates (Microfluor, Dynex, Chantilly, Va., USA) and read in a Fluoroskan II fluroescence microtiter plate reader. Reagent blanks are subtracted from all values. For drug testing, the fluorescence units (FU) are divided by the optical density readings after staining cellular protein with sulforhodamine B (OD550) in order to correct for variations in cell number. IC50 values are determined by linear interpolation between two bracketing points. In each assay with inhibitors, estrone 3-O-sulfamate is run as a reference compound, and the IC50 values are normalized to estrone 3-O-sulfamate:
relative IC50=IC50 compound/IC50 estrone 3-O-sulfamate.

[2] = target: T2, Purified human steroid sulfatase (Homo sapiens, UniProt P08842); assay: Steroid sulfatase inhibition in vitro (p-nitrocatechol sulfate cleavage)
T2 sequence (P08842 22-583): T1 sequence (P08842 22-583)
Experimental: Steroid sulfatase inhibition in vitro:
Purified human steroid sulfatase not only is capable of cleaving steroid sulfates, but also readily cleaves aryl sulfates, such as p-nitrocatechol sulfate which is used herein. Assay mixtures are prepared by consecutively dispensing the following solutions into the wells of flat-bottom microtiter plates:
1) 50 μl inhibitor dilution in buffer (=0.1 M Tris-HCl, ph 7.5, 0.1% Triton X-100);
2) 50 μl substrate (=20 mM p-nitrocatechol sulfate in buffer)
3) 50 μl enzyme dilution to give a final concentration of 75 nM steroid sulfatase.
Plates are incubated at 37° C. for 30 minutes. The assay is stopped by addition of 100 μl of 1 N NaOH, and optical density measured in a microplate reader at 492 nm. […] IC50 values are calculated by nonlinear regression of the concentration/optical density data using the program Grafit (Erithacus Ltd.). Reported values are the result of three determinations.
From the fluorescence intensity data (I) obtained at different concentrations (c) of the test compound, the concentration inhibiting the enzymatic activity at 50% (IC50) is calculated using the equation [formula]
Relative IC50 values (rel IC50) are defined as follows: [formula]

rel IC50 (IC50 compound/IC50 estrone 3-O-sulfamate) [1]: 1.25
IC50 [2]: ~970 nM
Structure (SMILES): NS(=O)(=O)Oc1ccc2nc(C=C3C4CC5CC(C4)CC3C5)oc2c1 [Example 12, sulfamic acid 2-(adamantan-2-ylidenemethyl)benzoxazol-6-yl ester]
